From patent US20230365592A1 (Agios Pharmaceuticals, Inc., priority 2022, published 2023)

molecular target: T1, human PAH with the R408W mutation (Homo sapiens, UniProt P00439, R408W); assay: Cell Based Phenylalanine Flux Assay; settings: A375 cells expressing human R408W PAH; 24 hrs compound incubation; 13C-Tyrosine by LC-MS; average where tested multiple times; read-out: AC50;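 also: after compound treatment, cells received sepiapterin plus isotope-labelled Phenylalanine for 4 hours, then labelled Tyrosine in the medium was quantified, 10-point 2-fold dilution series run in duplicate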
T1 construct: expressed in transfected cells
T1 sequence (P00439 1-452 R408W): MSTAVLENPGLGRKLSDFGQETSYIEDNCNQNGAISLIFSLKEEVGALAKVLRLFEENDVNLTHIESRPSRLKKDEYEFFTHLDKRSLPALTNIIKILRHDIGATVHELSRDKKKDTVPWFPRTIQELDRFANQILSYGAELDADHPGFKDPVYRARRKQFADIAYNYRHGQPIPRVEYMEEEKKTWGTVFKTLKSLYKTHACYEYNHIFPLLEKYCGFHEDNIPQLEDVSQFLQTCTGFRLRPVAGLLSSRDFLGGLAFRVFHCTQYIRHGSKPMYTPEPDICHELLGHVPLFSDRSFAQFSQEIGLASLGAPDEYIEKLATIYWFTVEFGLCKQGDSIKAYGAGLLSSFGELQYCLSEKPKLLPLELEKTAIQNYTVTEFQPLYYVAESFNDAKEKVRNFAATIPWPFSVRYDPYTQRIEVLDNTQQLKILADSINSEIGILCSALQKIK

| SMILES | AC50 |
| --- | --- |
| O=C(c1nnc(-c2ncccn2)o1)N1CCc2[nH]cnc2[C@@H]1c1cc2c(F)cccn2n1 [Example 1312, (R)-(4-(4-fluoropyrazolo[1,5-a]pyridin-2-yl)-6,7-dihydro-1H-imidazo[4,5-c]pyridin-5(4H)-yl)(5-(pyrimidin-2-yl)-1,3,4-oxadiazol-2-yl)methanone] | 1000 to 5000 nM |
| O=C(c1nnc(-c2ncccn2)o1)N1CCc2[nH]cnc2[C@H]1c1cc2c(F)cccn2n1 [Example 1313, (S)-(4-(4-fluoropyrazolo[1,5-a]pyridin-2-yl)-6,7-dihydro-1H-imidazo[4,5-c]pyridin-5(4H)-yl)(5-(pyrimidin-2-yl)-1,3,4-oxadiazol-2-yl)methanone] | 500 to 1000 nM |
| Cc1ncccc1-c1nnc(C(=O)N2CCc3[nH]cnc3[C@H]2c2cc3cccc(Cl)n3n2)o1 [Example 1334, (S)-(4-(7-chloropyrazolo[1,5-a]pyridin-2-yl)-6,7-dihydro-1H-imidazo[4,5-c]pyridin-5(4H)-yl)(5-(2-methylpyridin-3-yl)-1,3,4-oxadiazol-2-yl)methanone] | < 500 nM |
| Cc1ncccc1-c1nnc(C(=O)N2CCc3[nH]cnc3[C@@H]2c2cc3cccc(Cl)n3n2)o1 [Example 1335, (R)-(4-(7-chloropyrazolo[1,5-a]pyridin-2-yl)-6,7-dihydro-1H-imidazo[4,5-c]pyridin-5(4H)-yl)(5-(2-methylpyridin-3-yl)-1,3,4-oxadiazol-2-yl)methanone] | > 5000 nM |
| Cc1cccc2cc([C@H]3c4nc[nH]c4CCN3C(=O)c3nnc(-c4ncccn4)o3)nn12 [Example 1336, (R)-(4-(7-methylpyrazolo[1,5-a]pyridin-2-yl)-6,7-dihydro-1H-imidazo[4,5-c]pyridin-5(4H)-yl)(5-(pyrimidin-2-yl)-1,3,4-oxadiazol-2-yl)methanone] | 1000 to 5000 nM |
| Cc1cccc2cc([C@@H]3c4nc[nH]c4CCN3C(=O)c3nnc(-c4ncccn4)o3)nn12 [Example 1337, (S)-(4-(7-methylpyrazolo[1,5-a]pyridin-2-yl)-6,7-dihydro-1H-imidazo[4,5-c]pyridin-5(4H)-yl)(5-(pyrimidin-2-yl)-1,3,4-oxadiazol-2-yl)methanone] | 500 to 1000 nM |
| Cc1cccc2cc([C@H]3c4nc[nH]c4CCN3C(=O)c3nnc(-c4cnccn4)o3)nn12 [Example 1338, (R)-(4-(7-methylpyrazolo[1,5-a]pyridin-2-yl)-6,7-dihydro-1H-imidazo[4,5-c]pyridin-5(4H)-yl)(5-(pyrazin-2-yl)-1,3,4-oxadiazol-2-yl)methanone] | > 5000 nM |
| Cc1cccc2cc([C@@H]3c4nc[nH]c4CCN3C(=O)c3nnc(-c4cnccn4)o3)nn12 [Example 1339, (S)-(4-(7-methylpyrazolo[1,5-a]pyridin-2-yl)-6,7-dihydro-1H-imidazo[4,5-c]pyridin-5(4H)-yl)(5-(pyrazin-2-yl)-1,3,4-oxadiazol-2-yl)methanone] | < 500 nM |
| Cc1ncccc1-c1nnc(C(=O)N2CCc3[nH]cnc3[C@H]2c2cc3cccc(C(F)(F)F)n3n2)o1 [Example 1342, (S)-(5-(2-methylpyridin-3-yl)-1,3,4-oxadiazol-2-yl)(4-(7-(trifluoromethyl)pyrazolo[1,5-a]pyridin-2-yl)-6,7-dihydro-1H-imidazo[4,5-c]pyridin-5(4H)-yl)methanone] | 500 to 1000 nM |
| Cc1ncccc1-c1nnc(C(=O)N2CCc3[nH]cnc3[C@@H]2c2cc3cccc(C(F)(F)F)n3n2)o1 [Example 1343, (R)-(5-(2-methylpyridin-3-yl)-1,3,4-oxadiazol-2-yl)(4-(7-(trifluoromethyl)pyrazolo[1,5-a]pyridin-2-yl)-6,7-dihydro-1H-imidazo[4,5-c]pyridin-5(4H)-yl)methanone] | 1000 to 5000 nM |
| COc1ccc(-c2nnc(C(=O)N3CCc4[nH]cnc4[C@H]3c3cc4cccc(C(F)(F)F)n4n3)o2)cn1 [Example 1344, (S)-(5-(6-methoxypyridin-3-yl)-1,3,4-oxadiazol-2-yl)(4-(7-(trifluoromethyl)pyrazolo[1,5-a]pyridin-2-yl)-6,7-dihydro-1H-imidazo[4,5-c]pyridin-5(4H)-yl)methanone] | 1000 to 5000 nM |

Other lines, results leading:

| AC50 | SMILES |
| --- | --- |
| 1000 to 5000 nM | Cc1cccn2nc([C@H]3c4nc[nH]c4CCN3C(=O)c3nnc(-c4ncccn4)o3)cc12 [Example 1310, (R)-(4-(4-methylpyrazolo[1,5-a]pyridin-2-yl)-6,7-dihydro-1H-imidazo[4,5-c]pyridin-5(4H)-yl)(5-(pyrimidin-2-yl)-1,3,4-oxadiazol-2-yl)methanone] |
| 500 to 1000 nM | Cc1cccn2nc([C@@H]3c4nc[nH]c4CCN3C(=O)c3nnc(-c4ncccn4)o3)cc12 [Example 1311, (S)-(4-(4-methylpyrazolo[1,5-a]pyridin-2-yl)-6,7-dihydro-1H-imidazo[4,5-c]pyridin-5(4H)-yl)(5-(pyrimidin-2-yl)-1,3,4-oxadiazol-2-yl)methanone] |
| < 500 nM | Cn1cc(-c2nnc(C(=O)N3CCc4[nH]cnc4[C@H]3c3cc4c(C(F)F)cccn4n3)o2)cn1 [Example 1316, (S)-(4-(4-(difluoromethyl)pyrazolo[1,5-a]pyridin-2-yl)-6,7-dihydro-1H-imidazo[4,5-c]pyridin-5(4H)-yl)(5-(1-methyl-1H-pyrazol-4-yl)-1,3,4-oxadiazol-2-yl)methanone] |
| 1000 to 5000 nM | Cn1cc(-c2nnc(C(=O)N3CCc4[nH]cnc4[C@@H]3c3cc4c(C(F)F)cccn4n3)o2)cn1 [Example 1317, (R)-(4-(4-(difluoromethyl)pyrazolo[1,5-a]pyridin-2-yl)-6,7-dihydro-1H-imidazo[4,5-c]pyridin-5(4H)-yl)(5-(1-methyl-1H-pyrazol-4-yl)-1,3,4-oxadiazol-2-yl)methanone] |
| < 500 nM | Cc1cccc2cc([C@@H]3c4nc[nH]c4CCN3C(=O)c3nnc(C4(C)CC4)o3)nn12 [Example 1319, (S)-(5-(1-methylcyclopropyl)-1,3,4-oxadiazol-2-yl)(4-(7-methylpyrazolo[1,5-a]pyridin-2-yl)-6,7-dihydro-1H-imidazo[4,5-c]pyridin-5(4H)-yl)methanone] |
| 1000 to 5000 nM | CC1(c2nnc(C(=O)N3CCc4[nH]cnc4[C@@H]3c3cc4c(Cl)cccn4n3)o2)CC1 [Example 1320, (R)-(4-(4-chloropyrazolo[1,5-a]pyridin-2-yl)-6,7-dihydro-1H-imidazo[4,5-c]pyridin-5(4H)-yl)(5-(1-methylcyclopropyl)-1,3,4-oxadiazol-2-yl)methanone] |
| < 500 nM | CC1(c2nnc(C(=O)N3CCc4[nH]cnc4[C@H]3c3cc4c(Cl)cccn4n3)o2)CC1 [Example 1321, (S)-(4-(4-chloropyrazolo[1,5-a]pyridin-2-yl)-6,7-dihydro-1H-imidazo[4,5-c]pyridin-5(4H)-yl)(5-(1-methylcyclopropyl)-1,3,4-oxadiazol-2-yl)methanone] |
| 1000 to 5000 nM | Cc1cccn2nc([C@H]3c4nc[nH]c4CCN3C(=O)c3nnc(C4(C)CC4)o3)cc12 [Example 1322, (R)-(5-(1-methylcyclopropyl)-1,3,4-oxadiazol-2-yl)(4-(4-methylpyrazolo[1,5-a]pyridin-2-yl)-6,7-dihydro-1H-imidazo[4,5-c]pyridin-5(4H)-yl)methanone] |
| < 500 nM | Cc1cccn2nc([C@@H]3c4nc[nH]c4CCN3C(=O)c3nnc(C4(C)CC4)o3)cc12 [Example 1323, (S)-(5-(1-methylcyclopropyl)-1,3,4-oxadiazol-2-yl)(4-(4-methylpyrazolo[1,5-a]pyridin-2-yl)-6,7-dihydro-1H-imidazo[4,5-c]pyridin-5(4H)-yl)methanone] |
| 1000 to 5000 nM | CC1(c2nnc(C(=O)N3CCc4[nH]cnc4[C@@H]3c3cc4c(C(F)(F)F)cccn4n3)o2)CC1 [Example 1324, (R)-(5-(1-methylcyclopropyl)-1,3,4-oxadiazol-2-yl)(4-(4-(trifluoromethyl)pyrazolo[1,5-a]pyridin-2-yl)-6,7-dihydro-1H-imidazo[4,5-c]pyridin-5(4H)-yl)methanone] |
| < 500 nM | CC1(c2nnc(C(=O)N3CCc4[nH]cnc4[C@H]3c3cc4c(C(F)(F)F)cccn4n3)o2)CC1 [Example 1325, (S)-(5-(1-methylcyclopropyl)-1,3,4-oxadiazol-2-yl)(4-(4-(trifluoromethyl)pyrazolo[1,5-a]pyridin-2-yl)-6,7-dihydro-1H-imidazo[4,5-c]pyridin-5(4H)-yl)methanone] |
| < 500 nM | Cc1ncccc1-c1nnc(C(=O)N2CCc3[nH]cnc3[C@H]2c2cc3c(F)cccn3n2)o1 [Example 1328, (S)-(4-(4-fluoropyrazolo[1,5-a]pyridin-2-yl)-6,7-dihydro-1H-imidazo[4,5-c]pyridin-5(4H)-yl)(5-(2-methylpyridin-3-yl)-1,3,4-oxadiazol-2-yl)methanone] |
| < 500 nM | Cc1ncccc1-c1nnc(C(=O)N2CCc3[nH]cnc3[C@H]2c2cc3c(C)cccn3n2)o1 [Example 1330, (S)-(4-(4-methylpyrazolo[1,5-a]pyridin-2-yl)-6,7-dihydro-1H-imidazo[4,5-c]pyridin-5(4H)-yl)(5-(2-methylpyridin-3-yl)-1,3,4-oxadiazol-2-yl)methanone] |
| 1000 to 5000 nM | Cc1ncccc1-c1nnc(C(=O)N2CCc3[nH]cnc3[C@@H]2c2cc3c(C)cccn3n2)o1 [Example 1331, (R)-(4-(4-methylpyrazolo[1,5-a]pyridin-2-yl)-6,7-dihydro-1H-imidazo[4,5-c]pyridin-5(4H)-yl)(5-(2-methylpyridin-3-yl)-1,3,4-oxadiazol-2-yl)methanone] |
